From PMC9986241 (Signal Transduction and Targeted Therapy, 2023)

Columns and labels:
B16F10 CDX = test: B16F10 cell xenograft; type: in vivo, C57BL-6J mice
From the text: Decrease of phospho-MEK1/2 was only observed in erianin and erianin/vemurafenib dual-therapy group, and even all erianin, erianin/vemurafenib dual-therapy, cobimetinib, and cobimetinib/vemurafenib dual-therapy group inhibited phosphorylation of ERK1/2 (Fig. 7d). […] Several clinical studies reveal that immune checkpoint therapies PD-1/PD-L1 synergistically promote RAF inhibitor in treatment of melanoma. Therefore, we checked the immune response involved in antitumor effect of erianin in vivo. After immunosuppression by hydrocortisone (50 mg/kg) for 1 week, B16F10 cell was implanted into C57BL-6J mice followed by vehicle or drug treatment. […]
Fig. 7 Erianin exerts antitumor efficacy in melanoma and colorectal cancer in vivo. a Tumor pharmacodynamic assay was performed in tumor-bearing NPG mice (tumor has been passaged from melanoma patient to mice for three generations). […] Tumor volume was measured once a week. […] One-way ANOVA test. ***p < 0.001. e Antitumor efficacy of erianin with or without immunity using B16F10 cell xenograft in C57BL-6J mouse. f, g Trend of tumor volume over time and tumor weight was measured after treatment on the last day of the study.
Peripheral blood or spleen lymphocytes (CD8a^+, CD4^+, and NK cell) in B16F10 CDX model after treated with erianin were quantified using BD FACSAria^TM III cell sorter. […]

[1] = tested on: SK-MEL-2, A375, SK-MEL-28, and HCT 116 cells; test: MTT growth assay at 24, 48, or 72 h; type: cell-based, human; conditions: both BRAF and RAS mutant cell lines
Protocol: The synergism and antagonism (CI value) were determined and analyzed using CompuSyn 1.0.
For cytotoxicity test, normal NHDF (5000 cells/well) and NHEM cell line (3000 cells/well) were planted into 96-well plates. For cell proliferation assay, A375 (1500 cells/well), SK-MEL-28 (3000 cells/well), SK-MEL-2 (4000 cells/well), and HCT116 (1500 cells/well) were planted into 96-well plates, determined concentration of drug was added after culture for 24 h. The viability of the cells was detected within 72 h using MTT solution (5 mg/mL). The absorbance at 570/490 nm was quantified by the use of the microplate reader.

BRAF WT (381-end) = target: T1, BRAF WT (381-end) (Homo sapiens, UniProt P15056); test: In vitro kinase assay (western blotting); type: biochemical; conditions: 12.5 to 50 nM
T1 construct: purchased Signal Chem B08-11BG
Protocol: (§1) After incubated with 100–400 μM ATP in kinase assay buffer for 30 min, the phosphorylation of the substrate/total substrate protein was detected by western blotting. For ADP-glo kinase assay, unconsumed ATP was depleted with the addition of ADP-Glo™. Followed by kinase detection reagent to convert ADP to ATP, consumption of ATP was detected to evaluate the kinase activity. For more details, refer to the manufacturer’s instructions of ADP-Glo™ Kinase Assay.
(§2) Figure S2. […] Enzyme kinetics parameters including Vmax and Km were obtained using the Michaelis double-reciprocal curve equation.

BRAF V600E (416-end) = target: T2, BRAF V600E (416-end) (Homo sapiens, UniProt P15056, V600E); test: In vitro kinase assay (western blotting); type: biochemical; conditions: 12.5 to 50 nM
T2 construct: purchased Signal Chem B08-12G
Protocol: as §1, §2

MEK1 full length = MEK1 full length (Homo sapiens, UniProt Q02750); test: ITC assay; type: binding; conditions: PBS (0.1% DMSO, pH = 7.4), read-out: affinity (Kd)
Protocol: (§3) 293 T cells were transfected with plasmids of pcDNA3.1-3×Flag-C-MAP2K1/MAP2K1 (K97A, M146A), MAP2K2/MAP2K1 (K101A, M150A), or CRAF/CRAF (K375A). […]
(§4) The ITC experiment was performed on a MicroCal PEAQ-ITC. […] All proteins and erianin were diluted with PBS (0.1% DMSO, pH = 7.4), and deionized water was injected into the reference cell as a heat balance control. After 19 times titrations of erianin into the sample cell at a constant rate of 150 s, the titration curve was fitted with nonlinear least squares estimation model using Microcal ORIGIN V7.0.

CRAF (306-end) = target: T3, CRAF (306-end) (Homo sapiens, UniProt P04049); test: ITC assay; type: binding; conditions: PBS (0.1% DMSO, pH = 7.4), read-out: affinity (Kd)
T3 construct: purchased
Protocol: as §3, §4

MEK2 full length = MEK2 full length (Homo sapiens, UniProt P36507); test: ITC assay; type: binding; conditions: PBS (0.1% DMSO, pH = 7.4), read-out: affinity (Kd)
Protocol: as §3, §4

Chain of MEK2 full length (P36507 whole entry): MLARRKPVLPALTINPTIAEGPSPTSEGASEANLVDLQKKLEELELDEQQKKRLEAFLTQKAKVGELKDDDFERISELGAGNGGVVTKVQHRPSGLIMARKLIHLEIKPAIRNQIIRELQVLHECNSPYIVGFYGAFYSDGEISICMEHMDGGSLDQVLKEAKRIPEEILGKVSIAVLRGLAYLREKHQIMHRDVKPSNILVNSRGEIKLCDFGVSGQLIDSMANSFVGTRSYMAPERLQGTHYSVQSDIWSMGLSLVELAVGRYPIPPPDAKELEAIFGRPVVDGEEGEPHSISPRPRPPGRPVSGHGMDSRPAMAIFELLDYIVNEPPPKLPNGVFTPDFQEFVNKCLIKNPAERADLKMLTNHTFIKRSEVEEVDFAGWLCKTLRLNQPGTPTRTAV
T1 sequence (P15056 381-766 limits assumed): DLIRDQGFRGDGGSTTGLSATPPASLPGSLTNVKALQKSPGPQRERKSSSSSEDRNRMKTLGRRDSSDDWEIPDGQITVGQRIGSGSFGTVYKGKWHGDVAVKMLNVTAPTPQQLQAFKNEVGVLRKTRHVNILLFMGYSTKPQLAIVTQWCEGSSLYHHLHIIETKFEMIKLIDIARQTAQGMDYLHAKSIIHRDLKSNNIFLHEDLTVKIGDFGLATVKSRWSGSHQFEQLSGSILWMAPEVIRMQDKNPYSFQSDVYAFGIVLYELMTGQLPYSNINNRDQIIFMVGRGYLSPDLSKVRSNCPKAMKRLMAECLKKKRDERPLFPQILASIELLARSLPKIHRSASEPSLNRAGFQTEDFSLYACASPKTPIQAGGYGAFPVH
Chain of MEK1 full length (Q02750 whole entry): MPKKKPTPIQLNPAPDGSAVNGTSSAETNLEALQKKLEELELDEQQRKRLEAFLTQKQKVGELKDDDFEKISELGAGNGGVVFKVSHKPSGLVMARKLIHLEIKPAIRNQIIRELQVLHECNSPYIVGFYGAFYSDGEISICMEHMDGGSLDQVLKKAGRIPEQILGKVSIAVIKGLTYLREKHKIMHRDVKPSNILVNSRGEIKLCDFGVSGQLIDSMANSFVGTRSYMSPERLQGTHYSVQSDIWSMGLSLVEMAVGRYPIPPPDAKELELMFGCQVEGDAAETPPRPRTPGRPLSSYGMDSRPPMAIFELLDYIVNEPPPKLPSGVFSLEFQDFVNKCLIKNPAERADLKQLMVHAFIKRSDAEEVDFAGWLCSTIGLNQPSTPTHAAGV
T3 sequence (P04049 306-648 limits assumed): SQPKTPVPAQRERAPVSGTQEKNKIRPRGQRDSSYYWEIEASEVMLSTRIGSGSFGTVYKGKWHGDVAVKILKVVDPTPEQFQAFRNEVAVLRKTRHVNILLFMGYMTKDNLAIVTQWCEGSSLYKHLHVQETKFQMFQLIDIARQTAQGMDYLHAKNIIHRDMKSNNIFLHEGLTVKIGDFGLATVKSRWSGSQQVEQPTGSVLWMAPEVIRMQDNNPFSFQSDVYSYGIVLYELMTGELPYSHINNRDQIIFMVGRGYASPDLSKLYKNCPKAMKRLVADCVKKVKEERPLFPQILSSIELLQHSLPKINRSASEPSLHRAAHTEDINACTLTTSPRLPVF
T2 sequence (P15056 416-766 V600E): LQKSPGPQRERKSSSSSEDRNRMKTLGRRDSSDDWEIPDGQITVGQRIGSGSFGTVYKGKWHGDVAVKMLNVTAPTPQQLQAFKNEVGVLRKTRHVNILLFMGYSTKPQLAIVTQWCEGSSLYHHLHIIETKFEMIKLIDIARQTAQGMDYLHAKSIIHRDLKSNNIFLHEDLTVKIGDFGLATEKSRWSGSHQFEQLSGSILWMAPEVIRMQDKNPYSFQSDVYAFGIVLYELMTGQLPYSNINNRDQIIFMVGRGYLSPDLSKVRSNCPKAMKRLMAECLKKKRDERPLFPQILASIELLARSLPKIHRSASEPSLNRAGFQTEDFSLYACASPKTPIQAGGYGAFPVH

## COc1ccc(CCc2cc(OC)c(OC)c(OC)c2)cc1O [Erianin]
B16F10 CDX; flow cytometry after erianin treatment
  CD8a+, CD4+ T cells, and NK cells: increased significantly
B16F10 CDX; monotherapy
  tumor growth: inhibited tumor growth
[1]
  proliferation: markedly suppress
BRAF WT (381-end)
  BRAF WT kinase activity: could not suppress
BRAF V600E (416-end)
  BRAF V600E kinase activity: could not suppress
MEK1 full length
  Kd: 59.3 µM
CRAF (306-end)
  Kd: 46 µM
MEK2 full length
  Kd: 101 µM
